Experimental data taken from patent US12064455B2, “Free fatty acids and methods of manufacture and use for treating coronavirus and other viral respiratory infections” (priority 2020, dated 2024).
Read-outs that look alike come from different tables or passages of the source.

Tests used:
SARS-CoV-2 = assay type: cell-based; conditions: Ethanol 35%
RSV = assay type: cell-based, respiratory syncytial virus
[1] = tested on: Influenza(H1N1)pdm09 virus; assay: Neutralization/virucidal assay, Example 8; assay type: cell-based, influenza A(H1N1)pdm09; conditions: Ethanol 70%
PIV-3 = assay type: cell-based, parainfluenza virus type 3
HRV-14 = assay type: cell-based, human rhinovirus
Ad-5 = assay type: cell-based, Adenovirus Type 5
A549 = assay: Toxicity controls, Example 8; assay type: cell-based; conditions: Ethanol 70%; Ad-5 test; highest dilution with full (80-100%) cytotoxicity
MA-104 = assay: Toxicity controls, Example 8; conditions: Ethanol 70%, highest dilution with full (80-100%) cytotoxicity
HeLa = assay: Toxicity controls, Example 8; conditions: Ethanol 70%; HRV-14 test; highest dilution with full (80-100%) cytotoxicity
hCoV-229E = assay: Neutralization/virucidal assay, Example 8

## CCO [Ethanol]
SARS-CoV-2; assay replicate 1
  LRV: >3.6−
  Virus Titer: <0.7 Log10CCID50 of virus per 0.1 ml
SARS-CoV-2; assay replicate 2
  LRV: >3.3
  Virus Titer: <0.7 Log10CCID50 of virus per 0.1 ml
RSV
  LRV: 2.0
  Virus Titer: 1.0 log10 CCID50 of virus per 0.1 mL
[1]; contact time 10-min at 22 ± 2° C.
  Virus Titer: 3.0 log10 CCID50 of virus per 0.1 mL
[1]; contact time 10-min, vs virus control
  LRV: 4.0
PIV-3
  LRV: >2.3
HRV-14
  Virus Titer: 4.5 log10 CCID50 of virus per 0.1 mL
Ad-5
  LRV: 3.4
  Virus Titer: 5.3 log10 CCID50 of virus per 0.1 mL
A549
  Toxicity: None
MDCK
  Toxicity: None
Huh7
  Toxicity: None
MA-104; PIV-3 test
  Toxicity: None
MA-104; RSV test
  Toxicity: None
HeLa
  Toxicity: None
hCoV-229E
  Virus Titer: <0.7 log10 CCID50 of virus per 0.1 mL
hCoV-229E; Ethanol 70%, contact time 10-min, vs virus control
  LRV: >2.0
